Measured values: US10316057B2, “Tandem facial amphiphiles” (WISCONSIN ALUMNI RESEARCH FOUNDATION, priority 2011, dated 2019)

What was measured:
Bacteriorhodopsin (bR) = target: T1, Bacteriorhodopsin (bR) (Halobacterium salinarum, UniProt P02945); test: Stabilization assay for bacteriorhodopsin (absorbance at 554 nm); conditions: room temperature, 20 days; 0.2 wt % OTG+0.8 wt % TFA or 1.0 wt % OTG only
T1 construct: extract bR from the native purple membrane; endogenous in cells
T1 sequence (P02945 14-261 limits assumed): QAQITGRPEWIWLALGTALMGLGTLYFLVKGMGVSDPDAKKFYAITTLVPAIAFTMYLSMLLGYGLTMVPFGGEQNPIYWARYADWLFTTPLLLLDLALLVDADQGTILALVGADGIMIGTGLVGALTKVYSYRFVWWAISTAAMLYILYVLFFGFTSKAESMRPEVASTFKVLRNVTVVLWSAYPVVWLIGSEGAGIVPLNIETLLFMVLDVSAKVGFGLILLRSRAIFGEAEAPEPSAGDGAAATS
Protocol: Bacteriorhodopsin (bR) has been widely employed for assessment of new amphiphiles because this membrane protein is readily available, and stability can be assessed via spectrophotometry (absorbance at 554 nm). Following standard protocols (Bazzacco et al., Biomacromolecules 2009, 10, 3317-3326), 2.0 wt % octyl-β-D-thioglucoside (OTG) was used to extract bR from the native purple membrane. After removal of insoluble debris via ultracentrifugation, the bR solution was diluted with amphiphile-containing solutions to generate samples containing 0.2 wt % OTG+0.8 wt % TFA. A control sample had OTG added to give a total of 1.0 wt %. […] Parallel studies were carried out at different amphiphile concentrations as described in Example 3 below. DDM is not efficient at bR extraction from the native membrane but extracted bR can be stable in the presence of DDM (Milder et al., Biochemistry 1991, 30, 1751-1761).
The general procedure was followed according to the reported protocol of Bazzacco et al. (Biomacromolecules 10, 3317-3326 (2009)). Frozen aliquots of purple membranes containing bR at 184 μM were thawed and solubilized by incubation with octylthioglucoside (OTG) for 24 hr at 4° C. in a dark room. For the solubilization, OTG (CMC=0.28 wt %) was used at 2.0 wt % in 10 mM sodium phosphate (pH 6.9). […] BR stability in each TFA solutions was monitored by measuring absorbance at 554 nm for 20 days.

[1] = stated in the bR protocol; cited from earlier work
LHI-RC superassembly = tested on: T2, LHI-RC superassembly; test: Stabilization assay for R. capsulatus superassembly (A875/A680); design: species or system Rhodobacter capsulatus; conditions: room temperature, 20 days, CMC+0.04 wt %, relative to DDM
T2 construct: The LHI-RC superassembly was extracted from native membranes with 1.0 wt % DDM; made in house; host or cells: Rhodobacter capsulatus U43[pUHTM86Bgl]; (lacks LHII), photosynthetic membranes
Excerpt: The promising results with bR stabilization led to investigating a more challenging system, the photosynthetic superassembly formed by the light harvesting I (LHI) and reaction center (RC) complexes from Rhodobacter capsulatus (Laible et al., Biochemistry 2003, 42, 1718-1730). This superassembly contains 30-40 protein molecules (five different components), and maintenance of native quaternary structure can be assessed via spectrophotometry. The LHI-RC superassembly was extracted from native membranes with 1.0 wt % DDM and purified with DDM at its CMC (0.009 wt %). […]
Resin-retaining spin columns (e.g., emptied His SpinTrap™ columns; GE Healthcare) were inserted into a 2 mL microcentrifuge tube and the samples were then loaded onto the column. […] The protein was collected by eluting with two 0.25 mL elution buffer aliquots (this buffer was identical to binding buffer with the addition to 1 M of imidazole; the pH of each solution was checked and readjusted to pH=7.8). […]
UV-Vis spectra of these solutions were measured in regular intervals. FIG. 9 illustrates the time course of stability of R. capsulatus superassembly, evaluated at room temperature. […] Absorbance ratio (A875/A680) was followed for the stability evaluation of the membrane protein. […] FIG. 10 illustrates the absorbance spectrum of R. capsulatus superassembly in TFA-1 (a,c) and DDM (b,d) at room temperature (˜23° C.). […]

Structure (SMILES)	bR stability over time (Bacteriorhodopsin (bR))	CMC [1] [wt %]	stability of LHI-RC superassembly (LHI-RC superassembly)
CCCCCCCCS[C@@H]1O[C@H](CO)[C@@H](O)[C@H](O)[C@H]1O [OTG, octyl-β-D-thioglucoside, reference compound]	almost completely denatured by day 10	0.28	–
CCCCCCCCCCCC[N+](C)(C)[O-] [lauryldimethylamine oxide]	–	–	rapid degradation of the superassembly
CCCCCCCCO[C@@H]1O[C@H](CO)[C@@H](O)[C@H](O)[C@H]1O [octyl-glucoside]	–	–	rapid degradation of the superassembly
